What was measured:
[1] = tested on: A2780 ovarian cancer cells; conditions: from J Med Chem 2022, 65, 14424; cited from earlier work
[2] = tested on: A2780cis (cisplatin-resistant clone of A2780); conditions: from J Med Chem 2022, 65, 14424; cited from earlier work
[3] = tested on: A2780 ovarian cancer cells; assay: MTT cytotoxicity assay, A2780; format: cell-based, human; conditions: 72 h, mean (SD)
Method: (§1) The human epithelial ovarian cancer A2780 cell line and its cisplatin-resistant clone A2780cis were obtained from Sigma-Aldrich (Milano, Italy). A2780cis cells were continuously exposed to 1 μM cisplatin to maintain cisplatin resistance. A549 cells (Human non-small cell lung cancer), MCF7 (metastatic breast cancer), PC3 (highly aggressive metastatic prostate cancer), and MG63 (osteosarcoma) were obtained from the American Type Culture Collection (ATCC). Cells were authenticated in laboratory using the PowerPlex 16 HS System. A2780, A2780cis, and PC3 cells were cultured in RPMI-1640 medium; MG63 and MCF7 cells were cultured in DMEM, and A549 cells were cultured in F12 NUT-MIX. The culture medium contained about 10% fetal bovine serum (FBS) (Gibco, Thermo Fisher Scientific, Monza, Italy), about 1% (v/v) of penicillin (10,000 units/mL)-streptomycin (10 mg/mL), and about 1% (v/v) L-glutamine (200 mM) (all from Sigma-Aldrich). Cells were cultured at 37° C. in a 5% CO2, fully humidified atmosphere.
(§2) 2.5×10^3 (PC3, MG63, MCF7) or 4.0×10^3 (A2780, A2780cis, A549) cells were seeded in 96-well microplates in 100 μL culture medium. Cells, allowed to adhere for 24 h, were then treated in triplicate with increasing concentrations of gold compounds. Cisplatin was included as a reference drug. Cell viability was evaluated using 3-(4,5-dimethylthiazol-2-yl)-2,5-diphenyltetrazolium bromide (MTT) assay (Sigma-Aldrich) after 72 h of treatment. Half maximal inhibitory concentrations (IC50), IC25, and IC75 were calculated using the CalcuSyn software version 2 (Biosoft, Ferguson, MO, USA) (See: Chou, T. C.; Talalay, P. Quantitative Analysis of Dose-Effect Relationships: The Combined Effects of Multiple Drugs or Enzyme Inhibitors. Adv. Enzyme Regul. 1984, 22, 27-55, which is incorporated herein by reference in its entirety). Fold resistance was calculated as the ratio of the IC50 of the A2780cis to that of the parental cell line A2780. Alternatively, cell viability was assayed by crystal violet staining (See: Feoktistova, M.; Geserick, P.; Leverkus, M. Crystal Violet Assay for Determining Viability of Cultured Cells. Cold Spring Harb Protoc 2016, 2016, pdb.prot087379, which is incorporated herein by reference in its entirety). Alternatively, after drug treatment, the culture Medium was removed, cells washed, fixed, and stained, and the Crystal Violet solution lasted 20 minutes (See: Sulaiman, A. A. A.; Casagrande, N.; Borghese, C.; Corona, G.; Isab, A. A.; Ahmad, S.; Aldinucci, D.; Altaf M. Design, Synthesis, and Preclinical Activity in Ovarian Cancer Models of New Phosphanegold(I)—N-Heterocyclic Carbene Complexes. J Med Chem 2022, 65, 14424-14440, which is incorporated herein by reference in its entirety).

A549 (lung cancer cells) = assay: MTT cytotoxicity assay, A549; format: cell-based, human; conditions: 72 h, mean (SD)
Method: as §1, §2

[4] = tested on: A2780cis (cisplatin-resistant clone of A2780); assay: MTT cytotoxicity assay, A2780cis; format: cell-based, human; conditions: for Fold resistance (A2780cis/A2780): IC50 A2780cis/IC50 A2780; for IC50: MTT, 72 h, mean, SD in next cell
Method: as §1, §2

A549-MCTSs = assay: 3D-A549-MCTS viability (PrestoBlue); format: cell-based, human
Method: To obtain multiple spheroids, 10.0×10^4 A549 cells were seeded in non-adherent conditions on poly-HEMA coated 96 wells (final volume, 200 μL) for four days. After drug treatment (72 h), the cell viability was determined using PrestoBlue Cell Viability Reagent (Thermo Fisher Scientific, Frederick, MD, USA) (See: Casagrande, N.; Celegato, M.; Borghese, C.; Mongiat, M.; Colombatti, A.; Aldinucci, D. Preclinical Activity of the Liposomal Cisplatin Lipoplatin in Ovarian Cancer. Clin Cancer Res 2014, 20, 5496-5506, which is incorporated herein by reference in its entirety).
3D-MCTSs are a model for in vitro drug testing (See: Zanoni, M.; Piccinini, F.; Arienti, C.; Zamagni, A.; Santi, S.; Polico, R.; Bevilacqua, A.; Tesei, A. 3D Tumor Spheroid Models for in Vitro Therapeutic Screening: A Systematic Approach to Enhance the Biological Relevance of Data Obtained. Sci Rep 2016, 6, 19103, which is incorporated herein by reference in its entirety) and to test drug tissue penetration. Thus, the effects of complex 3 in A549-MCTSs were determined by cultivating tumor cells in non-adherent conditions on poly-HEMA coated wells. […] Representative micro-photographs of A549-MCTSs treated with complex 3 (0.3-5 μM) and with cisplatin (15-250 μM) are shown in FIG. 9C.

[5] = tested on: PC3 (androgen-resistant prostate cancer); assay: MTT cytotoxicity assay, PC3; format: cell-based; conditions: 72 h, mean (SD)
Method: as §1, §2

MCF-7 (breast cancer) = assay: MTT cytotoxicity assay, MCF-7; format: cell-based; conditions: 72 h, mean, SD in next cell
Method: as §1, §2

MG-63 (osteosarcoma) = assay: MTT cytotoxicity assay, MG-63; format: cell-based; conditions: 72 h, mean, SD in next cell
Method: as §1
2.5×10^3 (PC3, MG63, MCF7) or 4.0×10^3 (A2780, A2780cis, A549) cells were seeded in 96-well microplates in 100 μL culture medium. Cells, allowed to adhere for 24 h, were then treated in triplicate with increasing concentrations of gold compounds. Cisplatin was included as a reference drug. Cell viability was evaluated using 3-(4,5-dimethylthiazol-2-yl)-2,5-diphenyltetrazolium bromide (MTT) assay (Sigma-Aldrich) after 72 h of treatment. Half maximal inhibitory concentrations (IC50), IC25, and IC75 were calculated using the CalcuSyn software version 2 (Biosoft, Ferguson, MO, USA) (See: Chou, T. C.; Talalay, P. Quantitative Analysis of Dose-Effect Relationships: The Combined Effects of Multiple Drugs or Enzyme Inhibitors. Adv. Enzyme Regul. 1984, 22, 27-55, which is incorporated herein by reference in its entirety). Fold resistance was calculated as the ratio of the IC50 of the A2780cis to that of the parental cell line A2780. […]

Row | Compound | anti-proliferative activity in A2780 cells (comparison) [1] | anti-proliferative activity in A2780cis cells (comparison) [2] | IC50 [3] | IC50 (A549 (lung cancer cells)) | IC50 (A549 (lung cancer cells); listed as cisplatin) | Fold resistance (A2780cis/A2780) [4] | IC50 [4] | IC50 (A549-MCTSs; 72 h, PrestoBlue, poly-HEMA coated wells) | IC50 fold higher than complex 3 in A549-MCTSs (A549-MCTSs; cisplatin vs complex 3) | IC50 [5] | IC50 ([5]; listed as cisplatin) | IC50 (MCF-7 (breast cancer)) | IC50 (MG-63 (osteosarcoma))
1 | CC(C)c1cccc(C(C)C)c1-n1cc[n+](-c2c(C(C)C)cccc2C(C)C)[c]1[Au-][P+](C1CCCCC1)(C1CCCCC1)C1CCCCC1.ClC(Cl)Cl.F[P-](F)(F)(F)(F)F [[Au(IPr)(Cy3P)]PF6·CHCl3] | more active | more active | – | – | – | – | – | – | – | – | – | – | –
2 | N.N.[Cl][Pt][Cl] [Cisplatin, reference compound] | – | – | 1510 nM | 6210 nM | 6200 nM | 6.93 | 10400 nM | 44000 nM | 46 fold | 3320 nM | 3300 nM | 22200 nM | –
3 | CC(C)c1cccc(C(C)C)c1-n1ccn(-c2c(C(C)C)cccc2C(C)C)[c]1=[Au-][P+](CC[P+]([Au-]=[c]1n(-c2c(C(C)C)cccc2C(C)C)ccn1-c1c(C(C)C)cccc1C(C)C)(c1ccccc1)c1ccccc1)(c1ccccc1)c1ccccc1 [Complex 1, [(Au(IPr))2(C26H24P2)](PF6)2] | – | – | 280 nM | 220 nM | – | 1.18 | 330 nM | – | – | 280 nM | – | 170 nM | 310 nM
4 | CC(C)c1cccc(C(C)C)c1-n1ccn(-c2c(C(C)C)cccc2C(C)C)[c]1=[Au-][P+](CCC[P+]([Au-]=[c]1n(-c2c(C(C)C)cccc2C(C)C)ccn1-c1c(C(C)C)cccc1C(C)C)(c1ccccc1)c1ccccc1)(c1ccccc1)c1ccccc1 [Complex 2, [(Au(IPr))2(C27H26P2)](PF6)2] | – | – | 280 nM | 260 nM | – | 1.61 | 450 nM | – | – | 250 nM | – | 280 nM | 420 nM

Reference: US20250222009A1, “DINUCLEAR GOLD(I) COMPLEXES FOR TREATING CANCER” (KING FAHD UNIVERSITY OF PETROLEUM AND MINERALS, priority 2024, published 2025)
